Assay results published in patent US20250154288A1, “CYTOTOXICITY TARGETING CHIMERAS FOR C-C CHEMOKINE RECEPTOR 2-EXPRESSING CELLS” (GLAXOSMITHKLINE INTELLECTUAL PROPERTY DEVELOPMENT LIMITED, priority 2022, published 2025).
pIC50: −log10 of the molar value. Structures can show the parent of a compound that is named as a salt.

Molecular target: human alpha1 nicotinic acetylcholine (nACh) receptor (Homo sapiens, UniProt P02708+Q07001)
Assay: Nicotinic Acetylcholine Receptor Antagonism Assay (IONFlux automated patch clamp)
Type: cell-based
Conditions: for pIC50: antagonism of nAChR stimulated with acetylcholine, average if several runs; for Emax at 100 µM: maximum percentage antagonism at Maximum Concentration of Compound Tested 100 μM, read-out: Maximum Response (%)
Description: Cells expressing human alpha1 nicotinic acetylcholine (nACh) receptor (nAChR) were washed and dissociated using Trypsin containing buffer. Cells were then washed and seeded at a density of 3-5 million cells/mL and allowed to grow for 3 days. Then, 60-80 μL of cells were added to plates and incubated with dose response of an ARM compound of Formula (I) with a top concentration of either 10 μM or 100 μM. The receptor was then stimulated via addition of acetylcholine (ACh) and activation of the receptor was monitored via the IONFlux automated patch clamp system. IonFlux Data Analyzer software was utilized to perform leak subtraction and measure (min) peak current amplitude.
Data processing: (1) Current values recorded for vehicle only applications in individual traps/patterns were subtracted from corresponding current amplitude values for control, test article and control+test article. (2) Control response was calculated as % of the average response of the 3rd out of total 3 ACh (10 mM) applications alone. In rare situations, if the 3rd ACh response was obscured due to technical artifacts, the 2nd and/or 1st ACh (10 mM) application was considered as control. The peak current amplitude generated in the presence of each test article concentration was then used to calculate the % inhibition as compared to control response (10 mM ACh alone). These estimates were further corrected for vehicle response and run down corrected by normalizing with time matched control responses (10 mM ACh alone). The corrected percentages were then fit with a non-linear function in GraphPad Prism 6 (or later versions) to determine the IC50.
Exclusion criteria: (i) any n's with poor recording quality, (ii) control current amplitude <500 pA or (iii) significant outliers, as determined by the Grubbs' test.
ARMs compounds of Formula (I) of the invention were tested for antagonism of the nAChR in the above assay in […] experimental runs and the results are shown in Table 6 below. Antagonistic activity of the compounds of Formula (I) of the invention is reported as an IC50 value (half maximal inhibitory concentration) and the maximum percentage antagonism observed at the highest concentration of compound of Formula (I) tested, as indicated in Table 6. For compounds tested in more than one experimental run, the IC50 value is reported as an average.

Sequence of human alpha1 nicotinic acetylcholine (nACh) receptor (P02708 21-457): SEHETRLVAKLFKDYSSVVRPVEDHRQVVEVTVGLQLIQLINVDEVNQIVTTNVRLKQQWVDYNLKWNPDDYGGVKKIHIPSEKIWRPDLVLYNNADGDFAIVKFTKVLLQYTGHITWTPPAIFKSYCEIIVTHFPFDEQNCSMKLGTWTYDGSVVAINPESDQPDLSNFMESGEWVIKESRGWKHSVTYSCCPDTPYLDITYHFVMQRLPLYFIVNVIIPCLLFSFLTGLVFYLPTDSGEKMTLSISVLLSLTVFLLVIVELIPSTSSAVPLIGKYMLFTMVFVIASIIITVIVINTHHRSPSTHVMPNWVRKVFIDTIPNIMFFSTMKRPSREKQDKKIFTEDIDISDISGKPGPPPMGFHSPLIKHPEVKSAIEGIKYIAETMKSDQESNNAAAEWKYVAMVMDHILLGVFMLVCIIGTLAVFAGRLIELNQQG
Sequence of human alpha1 nicotinic acetylcholine (nACh) receptor (P11230 24-501 partner): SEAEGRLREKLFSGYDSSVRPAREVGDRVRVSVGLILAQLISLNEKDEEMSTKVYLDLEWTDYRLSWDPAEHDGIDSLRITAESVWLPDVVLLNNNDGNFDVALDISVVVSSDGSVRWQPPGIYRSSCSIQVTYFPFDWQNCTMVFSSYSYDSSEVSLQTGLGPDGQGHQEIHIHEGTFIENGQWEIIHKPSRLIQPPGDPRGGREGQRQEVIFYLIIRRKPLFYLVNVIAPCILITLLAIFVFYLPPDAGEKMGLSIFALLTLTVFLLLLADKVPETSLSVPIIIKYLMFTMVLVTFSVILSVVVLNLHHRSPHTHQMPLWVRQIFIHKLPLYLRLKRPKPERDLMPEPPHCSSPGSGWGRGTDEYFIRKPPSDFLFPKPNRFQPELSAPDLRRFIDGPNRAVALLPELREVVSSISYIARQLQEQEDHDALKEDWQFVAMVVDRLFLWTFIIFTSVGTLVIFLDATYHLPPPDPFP
Sequence of human alpha1 nicotinic acetylcholine (nACh) receptor (Q07001 22-517): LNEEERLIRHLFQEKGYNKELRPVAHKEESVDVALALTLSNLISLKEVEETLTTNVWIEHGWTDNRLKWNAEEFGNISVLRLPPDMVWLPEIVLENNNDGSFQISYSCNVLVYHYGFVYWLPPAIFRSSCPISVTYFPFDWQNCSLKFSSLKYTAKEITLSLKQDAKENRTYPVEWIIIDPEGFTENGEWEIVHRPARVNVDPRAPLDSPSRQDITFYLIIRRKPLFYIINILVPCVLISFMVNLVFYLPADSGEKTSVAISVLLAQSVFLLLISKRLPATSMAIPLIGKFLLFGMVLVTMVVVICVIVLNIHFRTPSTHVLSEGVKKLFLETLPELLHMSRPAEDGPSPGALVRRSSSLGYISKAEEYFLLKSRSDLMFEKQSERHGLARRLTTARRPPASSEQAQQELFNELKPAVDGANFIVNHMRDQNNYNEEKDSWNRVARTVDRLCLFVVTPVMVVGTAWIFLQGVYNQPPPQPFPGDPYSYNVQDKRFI

| SMILES | pIC50 | Emax at 100 µM [%] |
| --- | --- | --- |
| CO[C@@H]1COCC[C@@H]1N[C@@H]1CC[C@](CCCNC(=O)CCOCCOCCOCCOCCOCCOCCOCCOCCOCCOCCOCCOCCNC(=O)[C@H]2CC(=O)N(C)[C@@H]2c2cccnc2)(C(=O)N2CCc3ncc(C(F)(F)F)cc3C2)C1 [Example 1, (2S,3S)—N-(43-((1S,3R)-3-(((3S,4S)-3-methoxytetrahydro-2H-pyran-4-yl)amino)-1-(3-(trifluoromethyl)-5,6,7,8-tetrahydro-1,6-naphthyridine-6-carbonyl)cyclopentyl)-39-oxo-3,6,9,12,15,18,21,24,27,30,33,36-dodecaoxa-40-azatritetracontyl)-1-methyl-5-oxo-2-(pyridin-3-yl)pyrrolidine-3-carboxamide] | < 4.00 | 29 |
| CO[C@@H]1COCC[C@@H]1N[C@@H]1CC[C@](CCCNC(=O)[C@H]2CC[C@H](NC(=O)CCCO[C@H]3CC[C@H](OCCNC(=O)[C@H]4CC(=O)N(C)[C@@H]4c4cccnc4)CC3)CC2)(C(=O)N2CCc3ncc(C(F)(F)F)cc3C2)C1 [Example 3, (2S,3S)-N-(2-(((1R,4S)-4-(4-(((1S,4R)-4-((3-((1S,3R)-3-(((3S,4S)-3-Methoxytetrahydro-2H-pyran-4-yl)amino)-1-(3-(trifluoromethyl)-5,6,7,8-tetrahydro-1,6-naphthyridine-6-carbonyl)cyclopentyl)propyl)carbamoyl)cyclohexyl)amino)-4-oxobutoxy)cyclohexyl)oxy)ethyl)-1-methyl-5-oxo-2-(pyridin-3-yl)pyrrolidine-3-carboxamide] | < 4.00 | 38 |
| CO[C@@H]1COCC[C@@H]1N[C@@H]1CC[C@@](C(=O)N2Cc3cc(C(F)(F)F)cnc3[C@H](NC(=O)[C@H]3CC[C@H](NC(=O)CCCO[C@H]4CC[C@H](OCCNC(=O)[C@H]5CC(=O)N(C)[C@@H]5c5cccnc5)CC4)CC3)C2)(C(C)C)C1 [Example 14, (2S,3S)-N-(2-(((1R,4S)-4-(4-(((1R,4R)-4-(((R)-6-((1S,3R)-1-isopropyl-3-(((3S,4S)-3-methoxytetrahydro-2H-pyran-4-yl)amino)cyclopentane-1-carbonyl)-3-(trifluoromethyl)-5,6,7,8-tetrahydro-1,6-naphthyridin-8-yl)carbamoyl)cyclohexyl)amino)-4-oxobutoxy)cyclohexyl)oxy)ethyl)-1-methyl-5-oxo-2-(pyridin-3-yl)pyrrolidine-3-carboxamide, 3Formic acid salt] | < 4.00 | 38 |
| CO[C@@H]1COCC[C@@H]1N[C@@H]1CC[C@](CCCNC(=O)[C@H]2CC[C@@H](NC(=O)CCCO[C@H]3CC[C@@H](OCCNC(=O)[C@H]4CC(=O)N(C)[C@@H]4c4cccnc4)CC3)CC2)(C(=O)N2CCc3ncc(C(F)(F)F)cc3C2)C1 [Example 4, (2S,3S)-N-(2-(((1S,4R)-4-(4-(((1R,4S)-4-((3-((1S,3R)-3-(((3S,4S)-3-Methoxytetrahydro-2H-pyran-4-yl)amino)-1-(3-(trifluoromethyl)-5,6,7,8-tetrahydro-1,6-naphthyridine-6-carbonyl)cyclopentyl)propyl)carbamoyl)cyclohexyl)amino)-4-oxobutoxy)cyclohexyl)oxy)ethyl)-1-methyl-5-oxo-2-(pyridin-3-yl)pyrrolidine-3-carboxamide, Formic acid salt] |  | 48 |
| CO[C@@H]1COCC[C@@H]1N[C@@H]1CC[C@](CCCNC(=O)CCOCCOCCO[C@H]2CC[C@H](OCCNC(=O)[C@H]3CC(=O)N(C)[C@@H]3c3cccnc3)CC2)(C(=O)N2CCc3ncc(C(F)(F)F)cc3C2)C1 [Example 20, ((2S,3S)—N-(2-(((1r,4S)-4-(2-(2-(3-((3-((1S,3R)-3-(((3S,4S)-3-Methoxytetrahydro-2H-pyran-4-yl)amino)-1-(3-(trifluoromethyl)-5,6,7,8-tetrahydro-1,6-naphthyridine-6-carbonyl)cyclopentyl)propyl)amino)-3-oxopropoxy)ethoxy)ethoxy)cyclohexyl)oxy)ethyl)-1-methyl-5-oxo-2-(pyridin-3-yl)pyrrolidine-3-carboxamide, Formic acid salt] |  | 74 |
| CO[C@@H]1COCC[C@@H]1N[C@@H]1CC[C@](CCCCNC(=O)[C@H]2CC[C@H](NC(=O)CCCO[C@H]3CC[C@H](OCCNC(=O)[C@H]4CC(=O)N(C)[C@@H]4c4cccnc4)CC3)CC2)(C(=O)N2CCc3ncc(C(F)(F)F)cc3C2)C1 [Example 7, (2S,3S)-N-(2-(((1R,4S)-4-(4-(((1S,4R)-4-((4-((1S,3R)-3-(((3S,4S)-3-Methoxytetrahydro-2H-pyran-4-yl)amino)-1-(3-(trifluoromethyl)-5,6,7,8-tetrahydro-1,6-naphthyridine-6-carbonyl)cyclopentyl)butyl)carbamoyl)cyclohexyl)amino)-4-oxobutoxy)cyclohexyl)oxy)ethyl)-1-methyl-5-oxo-2-(pyridin-3-yl)pyrrolidine-3-carboxamide] | 4.03 | 54 |
| CO[C@@H]1COCC[C@@H]1N[C@@H]1CC[C@](CCC2CCN(C(=O)[C@H]3CC[C@H](NC(=O)CCCO[C@H]4CC[C@H](OCCNC(=O)[C@H]5CC(=O)N(C)[C@@H]5c5cccnc5)CC4)CC3)CC2)(C(=O)N2CCc3ncc(C(F)(F)F)cc3C2)C1 [Example 2, (2S,3S)—N-(2-(((1R,4S)-4-(4-(((1S,4R)-4-(4-(2-((1S,3R)-3-(((3S,4S)-3-Methoxytetrahydro-2H-pyran-4-yl)amino)-1-(3-(trifluoromethyl)-5,6,7,8-tetrahydro-1,6-naphthyridine-6-carbonyl)cyclopentyl)ethyl)piperidine-1-carbonyl)cyclohexyl)amino)-4-oxobutoxy)cyclohexyl)oxy)ethyl)-1-methyl-5-oxo-2-(pyridin-3-yl)pyrrolidine-3-carboxamide] | < 4.00 | 40 |
| CO[C@@H]1COCC[C@@H]1N[C@@H]1CC[C@](COCCNC(=O)[C@H]2CC[C@H](NC(=O)CCCO[C@H]3CC[C@H](OCCNC(=O)[C@H]4CC(=O)N(C)[C@@H]4c4cccnc4)CC3)CC2)(C(=O)N2CCc3ncc(C(F)(F)F)cc3C2)C1 [Example 11, (2S,3S)-N-(2-(((1R,4S)-4-(4-(((1S,4R)-4-((2-(((1S,3R)-3-(((3S,4S)-3-Methoxytetrahydro-2H-pyran-4-yl)amino)-1-(3-(trifluoromethyl)-5,6,7,8-tetrahydro-1,6-naphthyridine-6-carbonyl)cyclopentyl)methoxy)ethyl)carbamoyl)cyclohexyl)amino)-4-oxobutoxy)cyclohexyl)oxy)ethyl)-1-methyl-5-oxo-2-(pyridin-3-yl)pyrrolidine-3-carboxamide] | < 4.00 | 39 |
| CO[C@@H]1COCC[C@@H]1N[C@@H]1CC[C@](CCCNC(=O)[C@H]2CC[C@@H](NC(=O)CCOCCOCCOCCNC(=O)[C@H]3CC(=O)N(C)[C@@H]3c3cccnc3)CC2)(C(=O)N2CCc3ncc(C(F)(F)F)cc3C2)C1 [Example 17, (2S,3S)—N-(2-(2-(2-(3-(((1R,4s)-4-((3-((1S,3R)-3-(((3S,4S)-3-Methoxytetrahydro-2H-pyran-4-yl)amino)-1-(3-(trifluoromethyl)-5,6,7,8-tetrahydro-1,6-naphthyridine-6-carbonyl)cyclopentyl)propyl)carbamoyl)cyclohexyl)amino)-3-oxopropoxy)ethoxy)ethoxy)ethyl)-1-methyl-5-oxo-2-(pyridin-3-yl)pyrrolidine-3-carboxamide, Formic acid salt] | ≤ 4.00 | 21 |
| CO[C@@H]1COCC[C@@H]1N[C@@H]1CC[C@](CCNC(=O)[C@H]2CC[C@H](NC(=O)CCCO[C@H]3CC[C@H](OCCNC(=O)[C@H]4CC(=O)N(C)[C@@H]4c4cccnc4)CC3)CC2)(C(=O)N2CCc3ncc(C(F)(F)F)cc3C2)C1 [Example 8, (2S,3S)-N-(2-(((1R,4S)-4-(4-(((1R,4R)-4-((2-((1R,3R)-3-(((3S,4S)-3-Methoxytetrahydro-2H-pyran-4-yl)amino)-1-(3-(trifluoromethyl)-5,6,7,8-tetrahydro-1,6-naphthyridine-6-carbonyl)cyclopentyl)ethyl)carbamoyl)cyclohexyl)amino)-4-oxobutoxy)cyclohexyl)oxy)ethyl)-1-methyl-5-oxo-2-(pyridin-3-yl)pyrrolidine-3-carboxamide] |  | 48 |
| CO[C@H]1COCC[C@H]1N[C@H]1CC[C@@](CCCNC(=O)[C@H]2CC[C@@H](NC(=O)CCOCCOCCNC(=O)CCNC(=O)[C@H]3CC(=O)N(C)[C@@H]3c3cccnc3)CC2)(C(=O)N2CCc3ncc(C(F)(F)F)cc3C2)C1 [Example 19, (2S,3S)—N-(3-((2-(2-(3-(((1s,4s)-4-((3-((1R,3S)-3-(((3R,4R)-3-Methoxytetrahydro-2H-pyran-4-yl)amino)-1-(3-(trifluoromethyl)-5,6,7,8-tetrahydro-1,6-naphthyridine-6-carbonyl)cyclopentyl)propyl)carbamoyl)cyclohexyl)amino)-3-oxopropoxy)ethoxy)ethyl)amino)-3-oxopropyl)-1-methyl-5-oxo-2-(pyridin-3-yl)pyrrolidine-3-carboxamide] | < 4.00 | 8 |
